Experimental data: ChEMBL document CHEMBL4390635, “α-Glucosidase inhibition activity and in silico study of 2-(benzo[d][1,3]dioxol-5-yl)-4H-chromen-4-one, a synthetic derivative of flavone” (Bioorg Med Chem, 2019)
One block for each molecule: values may come before it. Active and inactive are the calls of the source. The calls are words filed in the database; no cut-off is given here.

Columns and labels:
[1] = tested on: Saccharomyces cerevisiae; test: Inhibition of Saccharomyces cerevisiae alpha-glucosidase at 669.57 uM incubated for 30 mins before pNPG substrate addition and measured after 10 mins by spectrophotometry relative to untreated control
[2] = tested on: Saccharomyces cerevisiae; test: Competitive inhibition of Saccharomyces cerevisiae alpha-glucosidase incubated for 30 mins before pNPG substrate addition and measured after 10 mins by spectrophotometry based Michaelis-Menten equation and Lineweaver-Burk plot analysis
[3] = tested on: Saccharomyces cerevisiae; test: Inhibition of Saccharomyces cerevisiae alpha-glucosidase at 27.62 uM incubated for 30 mins before pNPG substrate addition and measured after 10 mins by spectrophotometry relative to untreated control
[4] = tested on: Saccharomyces cerevisiae; test: Inhibition of Saccharomyces cerevisiae alpha-glucosidase at 3.54 uM incubated for 30 mins before pNPG substrate addition and measured after 10 mins by spectrophotometry relative to untreated control
[5] = tested on: Saccharomyces cerevisiae; test: Non-competitive inhibition of Saccharomyces cerevisiae alpha-glucosidase assessed as substrate Km incubated for 15 mins before pNPG substrate addition and measured for 180 secs by spectrophotometry based Michaelis-Menten equation and Lineweaver-Burk plot analysis
[6] = tested on: Saccharomyces cerevisiae; test: Non-competitive inhibition of Saccharomyces cerevisiae alpha-glucosidase assessed as substrate Vmax incubated for 15 mins before pNPG substrate addition and measured for 180 secs by spectrophotometry based Michaelis-Menten equation and Lineweaver-Burk plot analysis
[7] = tested on: Saccharomyces cerevisiae; test: Inhibition of Saccharomyces cerevisiae alpha-glucosidase incubated for 30 mins before pNPG substrate addition and measured after 10 mins by spectrophotometry
[8] = target: Alpha glucosidase (Homo sapiens, UniProt O43451+P10253+P14410+Q2M2H8); test: Inhibition of alpha-glucosidase (unknown origin) incubated for 20 mins before pNPG substrate addition and measured after 30 mins by UV spectrometry; assay type: protein assay

inhibition [1]: 97.7% | inhibition [2]: Active
Molecule: C[C@H]1O[C@H](O[C@H]2[C@H](O)[C@@H](O)[C@@H](O[C@H]3[C@H](O)[C@@H](O)C(O)O[C@@H]3CO)O[C@@H]2CO)[C@H](O)[C@@H](O)[C@@H]1N[C@H]1C=C(CO)[C@@H](O)[C@H](O)[C@H]1O (some centres undefined)

inhibition [3]: 99.3% | inhibition [4]: 8.4% | Km [5]: 71.4 µM⁻¹ | Vmax [6]: 0.028 µmol/min | inhibition [7]: Dose-dependent effect
Molecule: O=c1cc(-c2ccc3c(c2)OCO3)oc2ccccc12

IC50 [8]: 52 µM
Molecule: Cc1cc(=O)oc2c(O)c(O)ccc12 [4-METHYLDAPHNETIN]

IC50 [8]: 23.07 µM
Molecule: H-RVPSLM-OH
